{
  "source": "patent US12583900B2",
  "about": "“Peptide conjugates and methods of use” (The Scripps Research Institute, priority 2019, dated 2026)",
  "assay_type_in_all_cases": "in vivo, mouse",
  "key": {"C57BL/6J mice [1]": {"test_system": "C57BL/6J mice", "experiment": "Oral glucose tolerance test 6 h, 48 h, 96 h post dose (GLP-1R/GCGR agonists)", "settings": "48 h after administration", "procedure": "C57BL/6J mice (n=6/group) between 10-12 weeks old were fasted overnight and then administrated with 5 mL/kg of each peptide in PBS (pH=8.2) by s.c. route. After 6 hours, mice were orally or intraperitoneally administrated with 2 g of glucose solution per kg body weight and their tail blood glucose levels were measured before (0 min) and after glucose challenge for 2 hours. Follow up OGTT were also performed at 48 h, and 96 h post-original dose in same mice after overnight fast.\nThe efficacy of the GLP-1R/GCGR dual agonist 135 was then evaluated in an oral glucose tolerance test (OGTT) in wilt type mice."}, "DIO mice (C57BL/6)": {"test_system": "DIO mice (C57BL/6)", "experiment": "DIO mice study, daily s.c. dosing 21 days, plasma and liver analyses (28-week old)", "from_the_text": "All animal care and experimental procedures were approved by the Institutional Animal Care and Use Committee (IACUC) of California Institute for Biomedical Research (Calibr) and strictly followed the NIH guidelines for humane treatment of animals. The results are expressed as means S.E., and the data were compared using the unpaired Student's t test. Where appropriate, data were compared using repeated measures or one-way analysis of variance, followed by the Student-Newman-Keuls post hoc test. Incremental area under the curve (AUC) analyses for plasma glucose was calculated using GraphPad Prism 6.\nDIO mice (C57BL/6, male, 28-week old) were randomized based on their body weight and were treated with daily subcutaneous injections of peptide or vehicle (n=7/group). Body weight and food intake were monitored daily throughout the study. At the end of the experiment, mice were sacrificed, and visceral fat mass were weighed. Collected plasma was used for cholesterol level determination according to the manufacturer's guide (cholesterol assay kit, Abcam, Cambridge, England) and triglyceride level using a triglyceride colorimetric assay kit (Cayman chemical, Ann Arbor, Michigan).\nCollected plasma was used for cholesterol level determination according to the manufacturer's guide (cholesterol assay kit, Abcam, Cambridge, England). Briefly, plasma was diluted using cholesterol assay buffer and then reacted with the same volume of reaction mix containing cholesterol assay buffer, cholesterol probe, enzyme mix and cholesterol esterase. After incubation at 37° C. for 1 hour, the absorbance at 560 nm was measured using an Envision multilabel plate reader (PerkinElmer, Waltham, MA). Subsequently, the concentration of cholesterol in plasma was calculated according to a standard curve.\nCollected plasma was used for triglyceride level determination using a triglyceride colorimetric assay kit (Cayman chemical, Ann Arbor, Michigan). 5 μL of plasma samples or standard were plated into a 384 well plate and followed by adding 75 μL of diluted enzyme buffer to each well. The mixture was incubated at room temperature for 15 min, and the absorbance was read at 560 nm using an Envision plate reader (PerkinElmer, Waltham, MA). The concentration of triglyceride in plasma was calculated using a standard curve.\nTerminal serum analytes including total cholesterol, triglyceride, alanine aminotransferase (ALT), aspartate aminotransferase (AST), alkaline phosphatase (ALP) were determined by Alfa Wassermann Vet Axcel® clinical analyzer. Hepatic triglycerides were measured in liver homogenates generated with a colorimetric triglyceride kit (Cayman Chemical). Paraformaldehyde-fixed liver were paraffin-embedded, sectioned and stained with hematoxylin-eosin and Picro-Sirius red by HistoTox Labs (Boulder, CO). All histological assessment (steatosis, fibrosis scoring) were performed by a certified histopathologist blind to treatment (HistoTox Labs) based on classification outlined by Kleiner et al.^3"}, "C57BL/6J mice [2]": {"test_system": "C57BL/6J mice", "experiment": "Oral glucose tolerance test 2 h, 72 h, 96 h, […] post dose (GLP-1R/GIPR agonists)", "procedure": "C57BL/6J mice (n=6/group) between 10-12 weeks old were fasted overnight and then administrated with 5 mL/kg of each peptide in PBS (pH=8.2) by s.c. route. […]"}},
  "data": [
    {"compound": "CCCCCCCCCCCCCCCC(=O)N[C@@H](CCC(=O)NCCCC[C@H](NC(=O)[C@H](CC(=O)O)NC(=O)[C@H](CO)NC(=O)[C@@H](NC(=O)[C@H](Cc1ccccc1)NC(=O)[C@@H](NC(=O)CNC(=O)[C@H](CCC(N)=O)NC(=O)[C@H](CO)NC(=O)[C@@H](N)Cc1c[nH]cn1)[C@@H](C)O)[C@@H](C)O)C(=O)N[C@@H](CO)C(=O)N[C@@H](CCC(=O)O)C(=O)N[C@@H](Cc1ccc(O)cc1)C(=O)N[C@@H](CC(C)C)C(=O)N[C@@H](CC(=O)O)C(=O)N[C@@H](CO)C(=O)N[C@@H](CCC(=O)O)C(=O)N[C@@H](CCCNC(=N)N)C(=O)N[C@@H](C)C(=O)N[C@@H](CCCNC(=N)N)C(=O)N[C@@H](CC(=O)O)C(=O)N[C@@H](Cc1ccccc1)C(=O)N[C@H](C(=O)N[C@@H](C)C(=O)N[C@@H](Cc1c[nH]c2ccccc12)C(=O)N[C@@H](CC(C)C)C(=O)N[C@@H](CCC(=O)O)C(=O)N[C@@H](C)C(=O)NCC(=O)NCC(=O)O)C(C)C)C(=O)O", "note": "[cotadutide]", "values": [
      {"measurement": "glucose handling in OGTT", "setting": "C57BL/6J mice [1]", "value": "did not exhibit any improvement over the vehicle"},
      {"measurement": "plasma glucose excursions in a fasted state", "setting": "DIO mice (C57BL/6); day 21", "value": "significant decrease"},
      {"measurement": "liver to bodyweight ratio", "setting": "DIO mice (C57BL/6); vs vehicle", "value": "significantly decreased"},
      {"measurement": "liver triglyceride level", "setting": "DIO mice (C57BL/6); vs vehicle", "value": "significantly decreased"},
      {"measurement": "liver weight", "setting": "DIO mice (C57BL/6); vs vehicle", "value": "significantly decreased"}
    ]},
    {"compound": "semaglutide", "values": [
      {"measurement": "OGTT blood glucose levels as measured by the AUC vs vehicle", "setting": "C57BL/6J mice [2]; 2 hours post dose", "value": "significant decrease"},
      {"measurement": "fasted glucose levels vs vehicle", "setting": "C57BL/6J mice [2]; 2 hours post treatment", "value": "significant decrease"},
      {"measurement": "OGTT blood glucose levels as measured by the AUC vs vehicle", "setting": "C57BL/6J mice [2]; 72 hours post dose", "value": "significant decrease"},
      {"measurement": "fasted glucose levels vs vehicle", "setting": "C57BL/6J mice [2]; 72 hours post treatment", "value": "significant decrease"},
      {"measurement": "OGTT blood glucose levels as measured by the AUC vs vehicle", "setting": "C57BL/6J mice [2]; 96 hours post dose", "value": "significant decrease"},
      {"measurement": "fasted glucose levels vs vehicle", "setting": "C57BL/6J mice [2]; 96 hours post treatment", "value": "significant decrease"},
      {"measurement": "OGTT blood glucose levels as measured by the AUC vs vehicle", "setting": "C57BL/6J mice [2]; […] post dose", "value": "significant decrease"},
      {"measurement": "fasted glucose levels vs vehicle", "setting": "C57BL/6J mice [2]; […] post treatment", "value": "significant decrease"},
      {"measurement": "food consumption over 20 days vs vehicle", "setting": "DIO mice (C57BL/6); DIO mice, daily s.c.", "value": "reduction"},
      {"measurement": "total bodyweight and percent change from initial bodyweight over 21 days", "setting": "DIO mice (C57BL/6); DIO mice, daily s.c.", "value": "decrease"},
      {"measurement": "plasma glucose excursions in a fed state", "setting": "DIO mice (C57BL/6); day 20", "value": "significant decrease"},
      {"measurement": "OGTT glucose levels over time and AUC", "setting": "DIO mice (C57BL/6); day 21", "value": "significant decrease"},
      {"measurement": "plasma glucose excursions in a fasted state", "setting": "DIO mice (C57BL/6); day 21", "value": "significant decrease"},
      {"measurement": "plasma level of ALP", "setting": "DIO mice (C57BL/6); terminal, vs vehicle", "value": "significantly reduced"},
      {"measurement": "plasma level of ALT", "setting": "DIO mice (C57BL/6); terminal, vs vehicle", "value": "significantly reduced"},
      {"measurement": "plasma level of cholesterol", "setting": "DIO mice (C57BL/6); terminal, vs vehicle", "value": "significantly reduced"},
      {"measurement": "plasma level of triglycerides", "setting": "DIO mice (C57BL/6); terminal, vs vehicle", "value": "significantly reduced"},
      {"measurement": "fat weight", "setting": "DIO mice (C57BL/6); vs vehicle", "value": "significantly reduced"},
      {"measurement": "liver to bodyweight ratio", "setting": "DIO mice (C57BL/6); vs vehicle", "value": "significantly decreased"},
      {"measurement": "liver triglyceride level", "setting": "DIO mice (C57BL/6); vs vehicle", "value": "significantly decreased"},
      {"measurement": "liver weight", "setting": "DIO mice (C57BL/6); vs vehicle", "value": "significantly decreased"},
      {"measurement": "steatosis grade", "setting": "DIO mice (C57BL/6); vs vehicle", "value": "reduced"}
    ]}
  ]
}
